Data published in ChEMBL document CHEMBL6115026, “Synthesis and Biological Evaluation of Peripheral 5HT2B Antagonists for Liver Fibrosis” (J Med Chem, 2025).
Calls of active or inactive are those of the source. The rule behind the calls is not given here.

Columns and labels:
[1] = biological target: T1, 5-hydroxytryptamine receptor 2B (Homo sapiens, UniProt P41595); assay: Antagonist activity at 5HT2B (unknown origin) expressed in FRT cells co-expressing ANO1 and YFP assessed as inhibition of 5HT-induced increase in iodide influx at 1 uM preincubated with compound for 10 mins followed by 5-HT addition and measured after 8 sec by YFP fluorescence quenching analysis relative to control; assay type: cell-based; settings: time 608.0 sec
[2] = biological target: T1, 5-hydroxytryptamine receptor 2B; assay: Binding affinity to 5-HT2B (unknown origin)
[3] = biological target: T1, 5-hydroxytryptamine receptor 2B; assay: Antagonist activity at 5HT2B (unknown origin) expressed in FRT cells co-expressing ANO1 and YFP assessed as inhibition of 5HT-induced increase in iodide influx preincubated with compound for 10 mins followed by 5-HT addition and measured after 8 sec by YFP fluorescence quenching analysis; assay type: cell-based
[4] = Drug concentration in male mouse plasma at 5 mg/kg, ip measured after 0.5 hrs by LC-MS/MS analysis; assay type: ADME, organism-based
[5] = Drug concentration in male mouse brain at 5 mg/kg, ip measured after 0.5 hrs by LC-MS/MS analysis; assay type: ADME, organism-based; settings: read-out: Ct
[6] = Metabolic stability in mouse liver microsomes assessed as parent compound remaining measured after 30 mins in presence of NADPH by LC-MS/MS analysis; assay type: ADME, Microsome; settings: read-out: Stability
[7] = Metabolic stability in rat liver microsomes assessed as parent compound remaining measured after 30 mins in presence of NADPH by LC-MS/MS analysis; assay type: ADME, Microsome; settings: read-out: Stability
[8] = Metabolic stability in human liver microsomes assessed as parent compound remaining measured after 30 mins in presence of NADPH by LC-MS/MS analysis; assay type: ADME, Microsome; settings: read-out: Stability
hERG (KCNH2) = hERG (KCNH2) (Homo sapiens, UniProt Q12809); assay: Inhibition of human ERG at 10 uM incubated for 2 hrs by fluorescence polarization assay relative to control; assay type: toxicity
CYP1A2 = biological target: T2, CYP1A2 (Homo sapiens, UniProt P05177); assay: Inhibition of CYP1A2 (unknown origin) at 1 uM preincubated for 10 mins followed by NADPH addition and measured after 20 mins by luminescence based microplate reader analysis relative to control; assay type: ADME; settings: time 30 min
T2 sequence (P05177 whole entry): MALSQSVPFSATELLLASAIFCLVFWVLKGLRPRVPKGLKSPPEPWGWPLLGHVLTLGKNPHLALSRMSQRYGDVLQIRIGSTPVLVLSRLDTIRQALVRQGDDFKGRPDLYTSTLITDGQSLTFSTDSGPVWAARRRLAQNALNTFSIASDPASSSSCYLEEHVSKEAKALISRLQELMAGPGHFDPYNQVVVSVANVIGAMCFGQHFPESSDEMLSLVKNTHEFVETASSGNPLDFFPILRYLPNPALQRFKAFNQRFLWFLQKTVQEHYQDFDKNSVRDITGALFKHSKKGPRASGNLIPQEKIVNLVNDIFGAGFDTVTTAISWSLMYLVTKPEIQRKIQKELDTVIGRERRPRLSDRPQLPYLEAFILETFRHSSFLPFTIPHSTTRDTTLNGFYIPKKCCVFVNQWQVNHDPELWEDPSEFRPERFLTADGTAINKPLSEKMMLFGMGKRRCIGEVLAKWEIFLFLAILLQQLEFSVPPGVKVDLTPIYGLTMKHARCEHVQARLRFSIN

CYP2C9 = CYP2C9 (Homo sapiens, UniProt P11712); assay: Inhibition of CYP2C9 (unknown origin) at 1 uM preincubated for 10 mins followed by NADPH addition and measured after 20 mins by luminescence based microplate reader analysis relative to control; assay type: ADME; settings: time 30 min
CYP2C19 = CYP2C19 (Homo sapiens, UniProt P33261); assay: Inhibition of CYP2C19 (unknown origin) at 1 uM preincubated for 10 mins followed by NADPH addition and measured after 20 mins by luminescence based microplate reader analysis relative to control; assay type: ADME; settings: time 30 min
CYP2D6 = CYP2D6 (Homo sapiens, UniProt P10635); assay: Inhibition of CYP2D6 (unknown origin) at 1 uM preincubated for 10 mins followed by NADPH addition and measured after 20 mins by luminescence based microplate reader analysis relative to control; assay type: ADME; settings: time 30 min
CYP3A4 = CYP3A4 (Homo sapiens, UniProt P08684); assay: Inhibition of CYP3A4 (unknown origin) at 1 uM preincubated for 10 mins followed by NADPH addition and measured after 20 mins by luminescence based microplate reader analysis relative to control; assay type: ADME; settings: time 30 min
[9] = Cytotoxicity against African green monkey Vero cells assessed as reduction in cell viability incubated for 24 hrs by EZ-CYTOX cell viability assay; assay type: toxicity, cell-based, Chlorocebus sabaeus
[10] = Cytotoxicity against HFL1 cells assessed as reduction in cell viability incubated for 24 hrs by EZ-CYTOX cell viability assay; assay type: toxicity, cell-based; settings: human
[11] = Cytotoxicity against mouse L929 cells assessed as reduction in cell viability incubated for 24 hrs by EZ-CYTOX cell viability assay; assay type: toxicity, cell-based
[12] = Cytotoxicity against mouse NIH3T3 cells assessed as reduction in cell viability incubated for 24 hrs by EZ-CYTOX cell viability assay; assay type: toxicity, cell-based
[13] = Cytotoxicity against CHO-K1 cells assessed as reduction in cell viability incubated for 24 hrs by EZ-CYTOX cell viability assay; assay type: toxicity, cell-based, Cricetulus griseus; settings: Chinese hamster
[14] = biological target: 5-hydroxytryptamine receptor 2A (Homo sapiens) (UniProt P28223); assay: Inhibition of 5-HT2A (unknown origin) at 1 uM relative to control
[15] = Half-life in male ICR mouse at 2 mg/kg, iv measured after 24 hrs by LC-MS/MS analysis; assay type: ADME, organism-based; settings: in vivo
[16] = AUC (0 to t) in male ICR mouse at 2 mg/kg, iv measured after 24 hrs by LC-MS/MS analysis; assay type: ADME, organism-based; settings: in vivo
[17] = Clearance in male ICR mouse at 2 mg/kg, iv measured after 24 hrs by LC-MS/MS analysis; assay type: ADME, organism-based; settings: in vivo
[18] = Volume of distribution at steady state in male ICR mouse at 2 mg/kg, iv measured after 24 hrs by LC-MS/MS analysis; assay type: ADME, organism-based; settings: in vivo, read-out: Vdss
[19] = Toxicity in CCl4-induced male C57BL/6J mouse model of liver fibrosis assessed as effect on liver gross morphology at 10 to 30 mg/kg, ip co-administered daily with CCl4 for 4 weeks; assay type: organism-based; settings: in vivo, 672 h, dose 10-30 mg/kg
Mus musculus [20] = assay: Antifibrotic activity in CCl4-induced male C57BL/6J mouse model of liver fibrosis assessed as reduction in fibrotic deposition in liver at 10 to 30 mg/kg, ip co-administered daily with CCl4 for 4 weeks by sirius red staining based analysis; assay type: functional, organism-based; settings: dose 10-30 mg/kg
Mus musculus [21] = assay: Antifibrotic activity in CCl4-induced male C57BL/6J mouse model of liver fibrosis assessed as reduction in fibrotic deposition in liver at 10 to 30 mg/kg, ip co-administered daily with CCl4 for 4 weeks by masson's trichrome staining based analysis; assay type: functional, organism-based; settings: dose 10-30 mg/kg
Mus musculus [22] = assay: Antifibrotic activity in CCl4-induced male C57BL/6J mouse model of liver fibrosis assessed as reduction in fibrotic deposition in liver at 10 to 30 mg/kg, ip co-administered daily with CCl4 for 4 weeks by H and E staining based analysis; assay type: functional, organism-based; settings: dose 10-30 mg/kg
Mus musculus [23] = assay: Antifibrotic activity in CCl4-induced male C57BL/6J mouse model of liver fibrosis assessed as reduction in fibrosis be measuring fibrotic stage at 10 to 30 mg/kg, ip co-administered daily with CCl4 for 4 weeks; assay type: functional, organism-based; settings: dose 10-30 mg/kg
Mus musculus [24] = assay: Antifibrotic activity in CCl4-induced male C57BL/6J mouse model of liver fibrosis assessed as reduction in sirius red positive area in liver at 10 to 30 mg/kg, ip co-administered daily with CCl4 for 4 weeks by sirius red staining based analysis; assay type: functional, organism-based; settings: dose 10-30 mg/kg
Mus musculus [25] = assay: Antifibrotic activity in CCl4-induced male C57BL/6J mouse model of liver fibrosis assessed as downregulation of alpha-SMA gene expression at 10 to 30 mg/kg, ip co-administered daily with CCl4 for 4 weeks by RT-PCR analysis; assay type: functional, organism-based; settings: dose 10-30 mg/kg
Mus musculus [26] = assay: Antifibrotic activity in CCl4-induced male C57BL/6J mouse model of liver fibrosis assessed as downregulation of Timp1 gene expression at 10 to 30 mg/kg, ip co-administered daily with CCl4 for 4 weeks by RT-PCR analysis; assay type: functional, organism-based; settings: dose 10-30 mg/kg
Mus musculus [27] = assay: Antifibrotic activity in CCl4-induced male C57BL/6J mouse model of liver fibrosis assessed as downregulation of Col1a1 gene expression at 10 to 30 mg/kg, ip co-administered daily with CCl4 for 4 weeks by RT-PCR analysis; assay type: functional, organism-based; settings: dose 10-30 mg/kg
Mus musculus [28] = assay: Antifibrotic activity in CCl4-induced male C57BL/6J mouse model of liver fibrosis assessed as downregulation of Col3a1 gene expression at 10 to 30 mg/kg, ip co-administered daily with CCl4 for 4 weeks by RT-PCR analysis; assay type: functional, organism-based; settings: dose 10-30 mg/kg
Mus musculus [29] = assay: Antifibrotic activity in CCl4-induced male C57BL/6J mouse model of liver fibrosis assessed as reduction in plasma ALT level at 10 to 30 mg/kg, ip co-administered daily with CCl4 for 4 weeks by enzymatic colorimetric analysis; assay type: functional, organism-based; settings: dose 10-30 mg/kg
Mus musculus [30] = assay: Antifibrotic activity in CCl4-induced male C57BL/6J mouse model of liver fibrosis assessed as reduction in plasma AST level at 10 to 30 mg/kg, ip co-administered daily with CCl4 for 4 weeks by enzymatic colorimetric analysis; assay type: functional, organism-based; settings: dose 10-30 mg/kg
Mus musculus [31] = assay: Antifibrotic activity in CCl4-induced male C57BL/6J mouse model of liver fibrosis assessed as reduction in plasma total bilirubin level at 10 to 30 mg/kg, ip co-administered daily with CCl4 for 4 weeks by enzymatic colorimetric analysis; assay type: functional, organism-based; settings: dose 10-30 mg/kg
Mus musculus [32] = assay: Antifibrotic activity in CCl4-induced male C57BL/6J mouse model of liver fibrosis assessed as reduction in hydroxyproline level in liver at 10 to 30 mg/kg, ip co-administered daily with CCl4 for 4 weeks; assay type: functional, organism-based; settings: dose 10-30 mg/kg

T1 sequence (P41595 whole entry): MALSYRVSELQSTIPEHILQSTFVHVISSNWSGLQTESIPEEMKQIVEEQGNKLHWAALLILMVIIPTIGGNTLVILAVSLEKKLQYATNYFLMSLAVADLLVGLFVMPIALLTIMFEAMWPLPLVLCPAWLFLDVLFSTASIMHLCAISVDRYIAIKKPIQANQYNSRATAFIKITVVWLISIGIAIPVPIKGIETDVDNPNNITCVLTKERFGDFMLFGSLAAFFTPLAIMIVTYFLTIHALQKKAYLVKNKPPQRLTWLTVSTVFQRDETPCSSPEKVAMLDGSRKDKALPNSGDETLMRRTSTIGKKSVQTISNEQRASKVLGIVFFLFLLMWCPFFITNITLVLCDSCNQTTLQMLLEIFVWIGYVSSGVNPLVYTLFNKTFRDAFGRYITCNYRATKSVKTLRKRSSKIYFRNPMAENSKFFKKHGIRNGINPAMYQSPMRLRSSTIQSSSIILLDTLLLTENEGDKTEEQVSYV
Chain of 5-hydroxytryptamine receptor 2A (Homo sapiens) (P28223 whole entry): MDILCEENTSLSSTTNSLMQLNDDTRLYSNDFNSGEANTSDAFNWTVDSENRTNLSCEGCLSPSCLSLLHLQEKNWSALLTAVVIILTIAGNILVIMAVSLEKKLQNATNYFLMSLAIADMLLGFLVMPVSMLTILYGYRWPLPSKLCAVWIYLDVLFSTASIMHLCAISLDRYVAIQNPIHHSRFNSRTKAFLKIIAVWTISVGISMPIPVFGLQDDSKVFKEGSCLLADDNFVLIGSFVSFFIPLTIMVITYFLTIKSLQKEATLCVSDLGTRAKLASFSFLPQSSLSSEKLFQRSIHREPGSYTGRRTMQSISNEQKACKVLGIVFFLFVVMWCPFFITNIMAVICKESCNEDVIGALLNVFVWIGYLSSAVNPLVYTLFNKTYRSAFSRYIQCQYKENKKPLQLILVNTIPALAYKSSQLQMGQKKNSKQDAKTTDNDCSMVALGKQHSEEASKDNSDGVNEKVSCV
Chain of CYP2D6 (P10635 whole entry): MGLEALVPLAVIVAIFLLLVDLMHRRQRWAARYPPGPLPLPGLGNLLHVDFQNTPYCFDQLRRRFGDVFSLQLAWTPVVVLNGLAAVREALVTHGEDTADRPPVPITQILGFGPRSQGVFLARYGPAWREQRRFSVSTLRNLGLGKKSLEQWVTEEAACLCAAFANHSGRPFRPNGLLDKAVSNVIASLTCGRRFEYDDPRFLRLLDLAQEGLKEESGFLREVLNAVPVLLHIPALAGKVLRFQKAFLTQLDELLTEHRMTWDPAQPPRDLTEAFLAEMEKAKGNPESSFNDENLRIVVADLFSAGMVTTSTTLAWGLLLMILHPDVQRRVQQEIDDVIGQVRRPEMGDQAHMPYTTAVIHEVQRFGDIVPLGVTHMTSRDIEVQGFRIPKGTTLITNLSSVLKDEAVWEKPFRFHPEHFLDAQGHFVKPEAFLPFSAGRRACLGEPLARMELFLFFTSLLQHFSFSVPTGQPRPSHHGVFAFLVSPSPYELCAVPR
Chain of CYP2C19 (P33261 whole entry): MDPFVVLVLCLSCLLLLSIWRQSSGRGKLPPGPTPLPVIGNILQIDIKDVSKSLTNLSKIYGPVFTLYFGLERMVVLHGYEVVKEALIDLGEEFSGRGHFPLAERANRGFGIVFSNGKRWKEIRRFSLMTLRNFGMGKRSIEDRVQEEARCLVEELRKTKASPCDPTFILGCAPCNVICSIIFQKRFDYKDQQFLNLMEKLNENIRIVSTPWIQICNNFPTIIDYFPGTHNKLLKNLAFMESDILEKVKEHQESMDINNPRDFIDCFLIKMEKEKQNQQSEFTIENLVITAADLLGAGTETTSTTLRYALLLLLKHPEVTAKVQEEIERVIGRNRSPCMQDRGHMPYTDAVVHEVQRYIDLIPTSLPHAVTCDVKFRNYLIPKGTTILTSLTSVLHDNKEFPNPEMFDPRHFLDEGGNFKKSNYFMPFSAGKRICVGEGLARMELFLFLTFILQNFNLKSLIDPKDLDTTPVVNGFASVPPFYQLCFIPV
Chain of hERG (KCNH2) (Q12809 whole entry): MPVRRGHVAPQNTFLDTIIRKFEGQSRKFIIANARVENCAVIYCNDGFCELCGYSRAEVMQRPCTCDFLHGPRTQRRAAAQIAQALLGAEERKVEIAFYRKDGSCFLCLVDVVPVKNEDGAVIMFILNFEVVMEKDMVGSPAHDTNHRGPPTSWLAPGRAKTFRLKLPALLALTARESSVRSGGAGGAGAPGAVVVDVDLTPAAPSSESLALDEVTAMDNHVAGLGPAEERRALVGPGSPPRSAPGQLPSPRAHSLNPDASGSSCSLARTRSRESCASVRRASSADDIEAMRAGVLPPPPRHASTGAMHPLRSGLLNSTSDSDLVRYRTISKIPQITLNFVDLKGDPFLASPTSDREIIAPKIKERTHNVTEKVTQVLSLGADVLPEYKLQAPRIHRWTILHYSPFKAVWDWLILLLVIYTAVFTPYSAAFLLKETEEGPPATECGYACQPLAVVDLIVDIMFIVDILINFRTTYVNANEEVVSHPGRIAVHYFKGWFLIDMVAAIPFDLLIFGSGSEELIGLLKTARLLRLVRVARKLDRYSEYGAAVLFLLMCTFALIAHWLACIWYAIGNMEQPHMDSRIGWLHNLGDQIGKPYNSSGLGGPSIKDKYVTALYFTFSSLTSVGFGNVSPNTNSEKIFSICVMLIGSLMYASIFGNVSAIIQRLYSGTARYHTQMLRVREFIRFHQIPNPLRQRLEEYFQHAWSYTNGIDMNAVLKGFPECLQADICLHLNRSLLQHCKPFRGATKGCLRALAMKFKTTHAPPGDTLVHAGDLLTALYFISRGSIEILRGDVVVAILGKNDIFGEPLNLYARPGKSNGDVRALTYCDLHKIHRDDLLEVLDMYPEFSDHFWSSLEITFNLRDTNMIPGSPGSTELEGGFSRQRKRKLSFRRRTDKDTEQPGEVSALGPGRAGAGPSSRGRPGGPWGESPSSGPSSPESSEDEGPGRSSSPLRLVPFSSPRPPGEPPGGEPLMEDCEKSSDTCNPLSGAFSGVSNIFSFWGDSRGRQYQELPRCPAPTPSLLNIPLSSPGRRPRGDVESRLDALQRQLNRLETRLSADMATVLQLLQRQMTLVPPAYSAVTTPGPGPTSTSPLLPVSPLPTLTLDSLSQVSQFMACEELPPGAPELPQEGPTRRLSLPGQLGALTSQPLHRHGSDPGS
Chain of CYP3A4 (P08684 whole entry): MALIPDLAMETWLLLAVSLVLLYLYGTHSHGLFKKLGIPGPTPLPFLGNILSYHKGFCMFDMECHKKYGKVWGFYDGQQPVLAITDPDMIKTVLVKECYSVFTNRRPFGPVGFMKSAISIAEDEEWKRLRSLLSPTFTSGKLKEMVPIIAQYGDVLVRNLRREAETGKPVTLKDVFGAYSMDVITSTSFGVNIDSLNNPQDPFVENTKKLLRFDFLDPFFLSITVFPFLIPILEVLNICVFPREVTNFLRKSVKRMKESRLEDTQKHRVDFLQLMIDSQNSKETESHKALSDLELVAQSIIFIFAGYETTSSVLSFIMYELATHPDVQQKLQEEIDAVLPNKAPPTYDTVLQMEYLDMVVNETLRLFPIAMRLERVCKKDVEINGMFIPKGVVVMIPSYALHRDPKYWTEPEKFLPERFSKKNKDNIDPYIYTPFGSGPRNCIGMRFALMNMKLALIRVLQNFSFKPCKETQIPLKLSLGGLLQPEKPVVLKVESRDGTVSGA
Chain of CYP2C9 (P11712 whole entry): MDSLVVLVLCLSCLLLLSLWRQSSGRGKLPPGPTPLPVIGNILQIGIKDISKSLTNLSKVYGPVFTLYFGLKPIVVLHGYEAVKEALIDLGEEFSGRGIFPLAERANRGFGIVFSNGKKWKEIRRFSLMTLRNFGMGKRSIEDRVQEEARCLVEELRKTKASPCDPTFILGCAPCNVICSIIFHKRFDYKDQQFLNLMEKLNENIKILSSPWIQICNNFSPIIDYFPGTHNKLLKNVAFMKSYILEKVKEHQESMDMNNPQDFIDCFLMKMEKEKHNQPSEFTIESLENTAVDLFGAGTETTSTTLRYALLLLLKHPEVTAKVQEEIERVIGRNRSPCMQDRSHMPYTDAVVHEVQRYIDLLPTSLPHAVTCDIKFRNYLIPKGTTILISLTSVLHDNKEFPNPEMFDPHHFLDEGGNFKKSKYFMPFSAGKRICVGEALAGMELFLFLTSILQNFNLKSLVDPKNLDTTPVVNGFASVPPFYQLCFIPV

COc1ccc(S(=O)(=O)NC2CCNCC2)cc1C(=O)Nc1ccccc1Cl
inhibition ([1]; filed as antagonist): 96.3%

O=C(c1ccc(-c2ccccc2)cc1)N1CCC(c2cc3ccccc3[nH]2)CC1
IC50 [2]: 2.4 nM

COc1ccc(S(=O)(=O)N[C@H]2CCN(C(=O)CC[C@H](N)C(=O)O)C2)cc1C(=O)Nc1ccccc1Cl.Cl
inhibition ([1]; filed as antagonist): 102%
IC50 [3]: 1.09 nM
concentration at 0.5 h [4]: 440 ng/mL
concentration at 0.5 h [5]: < 31.3 ng/g
remaining at 0.5 h [6]: 91.6%
remaining at 0.5 h [7]: 94.7%
remaining at 0.5 h [8]: 97.6%
inhibition at 2 h, 10 µM (hERG (KCNH2)): 18.6%
inhibition at 20 min, 1 µM (CYP1A2): < 1%
inhibition at 20 min, 1 µM (CYP2C9): < 1%
inhibition at 20 min, 1 µM (CYP2C19): 17.6%
inhibition at 20 min, 1 µM (CYP2D6): < 1%
inhibition at 20 min, 1 µM (CYP3A4): 33.8%
IC50 at 24 h [9]: > 100000 nM
IC50 at 24 h [10]: > 100000 nM
IC50 at 24 h [11]: > 100000 nM
IC50 at 24 h [12]: > 100000 nM
IC50 at 24 h [13]: > 100000 nM
inhibition [14]: -9.88%
half-life [15]: 1.02 h
AUC(0-t) at 24 h [16]: 810 ng·h/mL
clearance [17]: 34.5 mL/min/kg
Vd [18]: 1.93 L/kg
Activity [19]: Non-toxic
Activity (Mus musculus [20]): Active
Activity (Mus musculus [21]): Active
Activity (Mus musculus [22]): Active
Activity (Mus musculus [23]): Active
Activity (Mus musculus [24]): Active
Activity (Mus musculus [25]): Active
Activity (Mus musculus [26]): Active
Activity (Mus musculus [27]): Active
Activity (Mus musculus [28]): Active
Activity (Mus musculus [29]): Active
Activity (Mus musculus [30]): Active
Activity (Mus musculus [31]): Active
Activity (Mus musculus [32]): Active

COc1ccc(S(=O)(=O)N[C@H]2CCNC2)cc1C(=O)Nc1ccccc1Cl
inhibition ([1]; filed as antagonist): 93.7%

COc1ccc(S(=O)(=O)N[C@@H]2CCNC2)cc1C(=O)Nc1ccccc1Cl
inhibition ([1]; filed as antagonist): 97.8%

COc1ccc(S(=O)(=O)N[C@H]2CCOC2)cc1C(=O)Nc1ccccc1N
inhibition [1]: 32.8%

COc1ccc(S(=O)(=O)N[C@H]2CCN(C(=O)[C@@H](N)CCC(=O)O)C2)cc1C(=O)Nc1ccccc1Cl
inhibition ([1]; filed as antagonist): 94.5%
IC50 [3]: 7.22 nM

COc1ccc(S(=O)(=O)N[C@H]2CCN(C(=O)OC(C)(C)C)C2)cc1C(=O)Nc1ccccc1Cl
inhibition ([1]; filed as antagonist): 96.1%

COc1ccc(S(=O)(=O)N[C@@H]2CCN(C(=O)OC(C)(C)C)C2)cc1C(=O)Nc1ccccc1Cl
inhibition ([1]; filed as antagonist): 99%
